From patent publication US6875727B2, “Use of macrolides in pest control” (Syngenta Crop Protection, Inc., priority 1998, dated 2005)

Tests used:
Format in all cases: in vivo
[1] = test system: Anthonomus grandis adults; assay: Spray action on transgenic cotton plants against Anthonomus grandis adults
Excerpt: (§1) Young transgenic cotton plants which express the δ-endotoxin CryIIIA are sprayed with an aqueous emulsion spray mixture comprising 100, 50, 10, 5, 1 ppm of emamectin-benzoate respectively. After the spray coating has dried on, the cotton plants are populated with 10 adult Anthonomus grandis, 10 Spodoptera littoralis larvae or 10 Heliothis virescens larvae respectively and introduced into a plastic container. Evaluation takes place 3 to 10 days later. The percentage reduction in population, or the percentage reduction in feeding damage (% action), is determined by comparing the number of dead beetles and the feeding damage on the transgenic cotton plants with that of non-transgenic cotton plants which have been treated with an emulsion spray mixture comprising emamectin-benzoate and conventional CryIIIA-toxin at a concentration of in each case 100, 50, 10, 5, 1 ppm respectively.
as §1, with “abamectin” for “emamectin-benzoate”
as §1, with “spinosad” for “emamectin-benzoate”
as §1, with “δ-endotoxin CryIa(c)” for “δ-endotoxin CryIIIA”, “of spinosad” for “of emamectin-benzoate”, “comprising spinosad” for “comprising emamectin-benzoate”
(§2) Young transgenic cotton plants which express the δ-endotoxin CryIa(c) are sprayed with an aqueous emulsion spray mixture comprising 100, 50, 10, 5, 1 ppm of abamectin respectively. After the spray coating has dried on, the cotton plants are populated with 10 adult Anthonomus grandis, 10 Spodoptera littoralis larvae or 10 Heliothis virescens larvae respectively and introduced into a plastic container. Evaluation takes place 3 to 10 days later. […]

Heliothis spp. = assay: Plot test, maize cv. KnockOut vs conventional maize, natural infestation with Heliothis spp.; details: for control of Heliothis on plot (a): plot (a) maize cv. KnockOut, spray 200, 100, 50, 10, 5, 1 ppm, evaluation 6 days later; for control level on plot (b): plot (b) conventional maize, also treated with 200, 100, 50, 10, 5, 1 ppm of the endotoxin expressed by KnockOut, 6 days
Experimental: (§3) A plot (a) planted with maize cv. KnockOut® and an adjacent plot (b) of the same size which is planted with conventional maize, both showing natural infestation with Ostrinia nubilalis, Spodoptera spp. or Heliothis, are sprayed with an aqueous emulsion spray mixture comprising 200, 100, 50, 10, 5, 1 ppm of spinosad. Immediately afterwards, plot (b) is treated with an emulsion spray mixture comprising 200, 100, 50, 10, 5, 1 ppm of the endotoxin expressed by KnockOut®. Evaluation takes place 6 days later. The percentage reduction in population (% action) is determined by comparing the number of dead pests on the plants of plot (a) with that on the plants of plot (b).
as §3, with “sp” for “spp.”, “abamectin.” for “spinosad.”
as §3, with “sp” for “spp.”, “emamectin benzoate.” for “spinosad.”

[2] = test system: Heliothis virescens larvae; assay: Spray action on transgenic cotton plants against Heliothis virescens larvae
Excerpt: as §1
as §1, with “abamectin” for “emamectin-benzoate”
as §1, with “spinosad” for “emamectin-benzoate”
as §1, with “δ-endotoxin CryIa(c)” for “δ-endotoxin CryIIIA”, “of spinosad” for “of emamectin-benzoate”, “comprising spinosad” for “comprising emamectin-benzoate”
as §2

Ostrinia nubilalis = assay: Plot test, maize cv. KnockOut vs conventional maize, natural infestation with Ostrinia nubilalis; details: for control of Ostrinia nubilalis on plot (a): plot (a) maize cv. KnockOut, spray 200, 100, 50, 10, 5, 1 ppm, evaluation 6 days later; for control level on plot (b): plot (b) conventional maize, also treated with 200, 100, 50, 10, 5, 1 ppm of the endotoxin expressed by KnockOut, 6 days
Experimental: as §3
as §3, with “sp” for “spp.”, “abamectin.” for “spinosad.”
as §3, with “sp” for “spp.”, “emamectin benzoate.” for “spinosad.”

[3] = test system: Spodoptera littoralis larvae; assay: Spray action on transgenic cotton plants against Spodoptera littoralis larvae
Excerpt: as §1
as §1, with “abamectin” for “emamectin-benzoate”
as §1, with “spinosad” for “emamectin-benzoate”
as §1, with “δ-endotoxin CryIa(c)” for “δ-endotoxin CryIIIA”, “of spinosad” for “of emamectin-benzoate”, “comprising spinosad” for “comprising emamectin-benzoate”
as §2

Spodoptera spp. = assay: Plot test, maize cv. KnockOut vs conventional maize, natural infestation with Spodoptera spp.; details: for control of Spodoptera spp. on plot (a): plot (a) maize cv. KnockOut, spray 200, 100, 50, 10, 5, 1 ppm, evaluation 6 days later; for control level on plot (b): plot (b) conventional maize, also treated with 200, 100, 50, 10, 5, 1 ppm of the endotoxin expressed by KnockOut, 6 days
Experimental: as §3
as §3, with “sp” for “spp.”, “abamectin.” for “spinosad.”
as §3, with “sp” for “spp.”, “emamectin benzoate.” for “spinosad.”

[4] = non-transgenic cotton, spray mixture with conventional CryIIIA-toxin, each 100, 50, 10, 5, 1 ppm (comparison to CryIIIA cotton)
[5] = non-transgenic cotton, spray mixture with conventional CryIIIA-toxin, each 100, 50, 10, 5, 1 ppm (comparison to CryIa(c) cotton)
[6] = transgenic cotton expressing δ-endotoxin CryIIIA, spray 100, 50, 10, 5, 1 ppm, evaluation 3 to 10 days
[7] = transgenic cotton expressing δ-endotoxin CryIa(c), spray 100, 50, 10, 5, 1 ppm, evaluation 3 to 10 days

Row | Substance | control of the tested insects (% action: reduction in population or feeding damage) [1, 4] | control of the tested insects (% action: reduction in population or feeding damage) [1, 5] | control of the tested insects (% action: reduction in population or feeding damage) [1, 6] | control of the tested insects (% action: reduction in population or feeding damage) [1, 7] | control of Heliothis on plot (a) (Heliothis spp.) | control level on plot (b) (Heliothis spp.) [%] | control of the tested insects (% action: reduction in population or feeding damage) [2, 4] | control of the tested insects (% action: reduction in population or feeding damage) [2, 5] | control of the tested insects (% action: reduction in population or feeding damage) [2, 6] | control of the tested insects (% action: reduction in population or feeding damage) [2, 7] | control of Ostrinia nubilalis on plot (a) (Ostrinia nubilalis) | control level on plot (b) (Ostrinia nubilalis) [%] | control of the tested insects (% action: reduction in population or feeding damage) [3, 4] | control of the tested insects (% action: reduction in population or feeding damage) [3, 5] | control of the tested insects (% action: reduction in population or feeding damage) [3, 6] | control of the tested insects (% action: reduction in population or feeding damage) [3, 7] | control of Spodoptera spp. on plot (a) (Spodoptera spp.) | control level on plot (b) (Spodoptera spp.) [%]
1 | abamectin | insufficient | insufficient | superior | superior | Improved control | ≤ 80 | insufficient | insufficient | superior | superior | Improved control | ≤ 80 | insufficient | insufficient | superior | superior | Improved control | ≤ 80
2 | emamectin-benzoate | insufficient | insufficient | superior | superior | Improved control | ≤ 80 | insufficient | insufficient | superior | superior | Improved control | ≤ 80 | insufficient | insufficient | superior | superior | Improved control | ≤ 80
3 | spinosad | insufficient | insufficient | superior | superior | Improved control | ≤ 80 | insufficient | insufficient | superior | superior | Improved control | ≤ 80 | insufficient | insufficient | superior | superior | Improved control | ≤ 80
